Laboratory results published in patent US7781441B2, “(3,4-dihydro-quinazolin-2-yl)-(2-aryloxy-ethyl)-amine” (Hoffmann-La Roche Inc., priority 2005, dated 2010).
pKi: −log10 of the molar value.

Molecular target: T1, recombinant human 5-HT5A receptor (Homo sapiens, UniProt P47898)
T1 construct: expressed in transfected cells; host or cells: HEK-EBNA (Human Embryonic Kidney-EBNA) cells, transient cDNA expression; membranes
Test: [3H]LSD radioligand binding assay
Conditions: [3H]LSD (approximately 1 nM); membranes from transiently expressed 5-HT5A receptors in HEK-EBNA cells; Ki by Cheng-Prussoff equation
Experimental: Compounds of the invention were tested for 5-HT5A activity in the following assay.
A [^3H]LSD radioligand binding assay was used to determine the affinity of the compounds for the recombinant human 5-HT5A receptor, in membranes from transiently (cDNA) expressed 5-HT5A receptors in Human Embryonic Kidney-EBNA (HEK-EBNA) cells. Assay buffer consisted of Tris (50 mM) buffer containing 1 mM EGTA, 10 mM MgCl2 (pH 7.4) and 10 μM pargyline. The binding assay was carried out in 96-well-plates in the presence of [^3H]LSD (approximately 1 nM), approximately 2 μg/well of membrane protein, and 0.5 mg of Ysi-poly-l-lysine SPA beads in a final volume of 200 μl of buffer. Non-specific binding was defined using methiothepin 2 μM. Compounds were tested at 10 concentrations. All assays were conducted in duplicate and repeated at least two times. Assay plates were incubated for 120 min at room temperature before centrifugation. Bound ligand was determined using a Packard Topcount scintillation counter. IC50 values were calculated using a non-linear curve fitting program and Ki values calated using the Cheng-Prussoff equation.

T1 sequence (P47898 whole entry): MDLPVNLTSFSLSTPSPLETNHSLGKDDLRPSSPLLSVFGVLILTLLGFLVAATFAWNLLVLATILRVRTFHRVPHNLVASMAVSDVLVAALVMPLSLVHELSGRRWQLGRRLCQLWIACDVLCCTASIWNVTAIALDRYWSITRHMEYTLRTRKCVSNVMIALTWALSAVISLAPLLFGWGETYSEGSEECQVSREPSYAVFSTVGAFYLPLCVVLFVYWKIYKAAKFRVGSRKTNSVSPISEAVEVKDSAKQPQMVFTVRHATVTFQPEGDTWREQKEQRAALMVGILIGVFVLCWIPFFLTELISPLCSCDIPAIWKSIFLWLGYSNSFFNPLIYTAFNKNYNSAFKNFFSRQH

pKi | SMILES
7.08 | COc1ccc(C)cc1OCCNC1=Nc2ccccc2CN1 [Example 44, (3,4-Dihydro-quinazolin-2-yl)-[2-(2-methoxy-5-methyl-phenoxy)-ethyl]-amine]
7.27 | COc1ccc2c(c1)CNC(NCCOc1ccccc1OC)=N2 [Example 62, (6-Methoxy-3,4-dihydro-quinazolin-2-yl)-[2-(2-methoxy-phenoxy)-ethyl]-amine]
8.12 | COc1ccccc1OCCNC1=Nc2ccccc2CN1 [Example 1, (3,4-Dihydro-quinazolin-2-yl)-[2-(2-methoxy-phenoxy)-ethyl]-amine]
7.27 | Cc1ccc2c(c1)CNC(NCCOc1ccccc1Cl)=N2 [Example 58, [2-(2-Chloro-phenoxy)-ethyl]-(6-methyl-3,4-dihydro-quinazolin-2-yl)-amine]
7.70 | COc1ccccc1OCCNC1=Nc2ccc(F)cc2CN1 [Example 29, (6-Fluoro-3,4-dihydro-quinazolin-2-yl)-[2-(2-methoxy-phenoxy)-ethyl]-amine]
7.08 | COc1ccc2c(c1)CNC(NCCOc1ccccc1Cl)=N2 [Example 56, [2-(2-Chloro-phenoxy)-ethyl]-(6-methoxy-3,4-dihydro-quinazolin-2-yl)-amine]
7.63 | COc1ccccc1OCCNC1=Nc2cccc(F)c2CN1 [Example 67, (5-Fluoro-3,4-dihydro-quinazolin-2-yl)-[2-(2-methoxy-phenoxy)-ethyl]-amine]
7.04 | COc1cccc(OC)c1OCCNC1=Nc2ccccc2CN1 [Example 41, (3,4-Dihydro-quinazolin-2-yl)-[2-(2,6-dimethoxy-phenoxy)-ethyl]-amine]
7.71 | COc1ccccc1OCCNC1=Nc2ccc(C)cc2CN1 [Example 64, [2-(2-Methoxy-phenoxy)-ethyl]-(6-methyl-3,4-dihydro-quinazolin-2-yl)-amine]
7.37 | COc1cccc(F)c1OCCNC1=Nc2ccccc2CN1 [Example 45, (3,4-Dihydro-quinazolin-2-yl)-[2-(2-fluoro-6-methoxy-phenoxy)-ethyl]-amine]
7.74 | Fc1ccc2c(c1)CNC(NCCOc1ccccc1)=N2 [Example 2, (6-Fluoro-3,4-dihydro-quinazolin-2-yl)-(2-phenoxy-ethyl)-amine]
7.05 | Fc1ccc(Br)c(OCCNC2=Nc3ccccc3CN2)c1 [Example 46, [2-(2-Bromo-5-fluoro-phenoxy)-ethyl]-(3,4-dihydro-quinazolin-2-yl)-amine]

The next lines start with the compound.

SMILES | pKi
Cc1ccc2c(c1)CNC(NCCOc1ccccc1)=N2 [Example 4, (6-Methyl-3,4-dihydro-quinazolin-2-yl)-(2-phenoxy-ethyl)-amine] | 7.60
N#Cc1ccccc1OCCNC1=Nc2ccccc2CN1 [Example 38, 2-[2-(3,4-Dihydro-quinazolin-2-ylamino)-ethoxy]-benzonitrile] | 7.27
Cc1cccc2c1CNC(NCCOc1ccccc1)=N2 [Example 10, (5-Methyl-3,4-dihydro-quinazolin-2-yl)-(2-phenoxy-ethyl)-amine hydroiodide] | 7.34
Clc1ccc2c(c1Cl)CNC(NCCOc1ccccc1)=N2 [Example 14, (5,6-Dichloro-3,4-dihydro-quinazolin-2-yl)-(2-phenoxy-ethyl)-amine hydroiodide] | 7.12
Clc1cccc2c1CNC(NCCOc1ccccc1)=N2 [Example 9, (5-Chloro-3,4-dihydro-quinazolin-2-yl)-(2-phenoxy-ethyl)-amine hydroiodide] | 7.28
Fc1cccc(OCCNC2=Nc3ccccc3CN2)c1 [Example 17, (3,4-Dihydro-quinazolin-2-yl)-[2-(3-fluoro-phenoxy)-ethyl]-amine] | 7.02
Fc1ccccc1OCCNC1=Nc2ccccc2CN1 [Example 6, (3,4-Dihydro-quinazolin-2-yl)-[2-(2-fluoro-phenoxy)-ethyl]-amine] | 7.47
C/C=C/c1ccccc1OCCNC1=Nc2ccccc2CN1 [Example 34, (3,4-Dihydro-quinazolin-2-yl)-[2-(2-propenyl-phenoxy)-ethyl]-amine] | 7.23
Clc1cccc(OCCNC2=Nc3ccccc3CN2)c1 [Example 18, [2-(3-Chloro-phenoxy)-ethyl]-(3,4-dihydro-quinazolin-2-yl)-amine] | 7.00
COc1ccc2c(c1)CNC(NCCOc1ccccc1)=N2 [Example 15, (6-Methoxy-3,4-dihydro-quinazolin-2-yl)-(2-phenoxy-ethyl)-amine] | 7.12
COc1cccc(OCCNC2=Nc3ccccc3CN2)c1 [Example 16, (3,4-Dihydro-quinazolin-2-yl)-[2-(3-methoxy-phenoxy)-ethyl]-amine] | 7.02
Clc1ccccc1OCCNC1=Nc2ccccc2CN1 [Example 3, [2-(2-Chloro-phenoxy)-ethyl]-(3,4-dihydro-quinazolin-2-yl)-amine] | 7.72
FC(F)(F)Oc1ccccc1OCCNC1=Nc2ccccc2CN1 [Example 13, (3,4-Dihydro-quinazolin-2-yl)-[2-(2-trifluoromethoxy-phenoxy)-ethyl]-amine] | 7.14
Cc1cccc(OCCNC2=Nc3ccccc3CN2)c1 [Example 12, (3,4-Dihydro-quinazolin-2-yl)-(2-m-tolyloxy-ethyl)-amine] | 7.19
Brc1ccccc1OCCNC1=Nc2ccccc2CN1 [Example 37, [2-(2-Bromo-phenoxy)-ethyl]-(3,4-dihydro-quinazolin-2-yl)-amine] | 7.65
Fc1cccc2c1CNC(NCCOc1ccccc1)=N2 [Example 7, (5-Fluoro-3,4-dihydro-quinazolin-2-yl)-(2-phenoxy-ethyl)-amine hydroiodide] | 7.52
c1ccc(OCCNC2=Nc3ccccc3CN2)cc1 [Example 5, (3,4-Dihydro-quinazolin-2-yl)-(2-phenoxy-ethyl)-amine hydroiodide] | 7.38
CCOc1ccccc1OCCNC1=Nc2ccccc2CN1 [Example 8, (3,4-Dihydro-quinazolin-2-yl)-[2-(2-ethoxy-phenoxy)-ethyl]-amine] | 7.42
CSc1ccccc1OCCNC1=Nc2ccccc2CN1 [Example 35, (3,4-Dihydro-quinazolin-2-yl)-[2-(2-methylsulfanyl-phenoxy)-ethyl]-amine] | 7.45
CC1NC(NCCOc2ccccc2)=Nc2ccccc21 (stereo not shown) [Example 11, (4-Methyl-3,4-dihydro-quinazolin-2-yl)-(2-phenoxy-ethyl)-amine hydroiodide] | 7.24
c1ccc(COc2ccccc2OCCNC2=Nc3ccccc3CN2)cc1 [Example 39, [2-(2-Benzyloxy-phenoxy)-ethyl]-(3,4-dihydro-quinazolin-2-yl)-amine] | 7.06
Fc1cccc2c1CNC(NCCOc1ccccc1Cl)=N2 [Example 59, [2-(2-Chloro-phenoxy)-ethyl]-(5-fluoro-3,4-dihydro-quinazolin-2-yl)-amine] | 7.32
